Values quoted from earlier work as cited in patent publication US20070112050A1, “HMGCoA reductase inhibitor combinations and uses thereof” (pSivida Inc., priority 2005, published 2007).
Like-named read-outs stand apart in the source and are kept apart here.

What was measured:
[1] = tested on: low density lipoprotein cholesterol (LDL); settings: ezetimibe administered alone
[2] = molecular target: T1, HMGCoA reductase (HMGR) (Homo sapiens, UniProt P04035); settings: substrate of HMGCoA reductase; read-out: Michaelis constant, Km
T1 sequence (P04035 1-888): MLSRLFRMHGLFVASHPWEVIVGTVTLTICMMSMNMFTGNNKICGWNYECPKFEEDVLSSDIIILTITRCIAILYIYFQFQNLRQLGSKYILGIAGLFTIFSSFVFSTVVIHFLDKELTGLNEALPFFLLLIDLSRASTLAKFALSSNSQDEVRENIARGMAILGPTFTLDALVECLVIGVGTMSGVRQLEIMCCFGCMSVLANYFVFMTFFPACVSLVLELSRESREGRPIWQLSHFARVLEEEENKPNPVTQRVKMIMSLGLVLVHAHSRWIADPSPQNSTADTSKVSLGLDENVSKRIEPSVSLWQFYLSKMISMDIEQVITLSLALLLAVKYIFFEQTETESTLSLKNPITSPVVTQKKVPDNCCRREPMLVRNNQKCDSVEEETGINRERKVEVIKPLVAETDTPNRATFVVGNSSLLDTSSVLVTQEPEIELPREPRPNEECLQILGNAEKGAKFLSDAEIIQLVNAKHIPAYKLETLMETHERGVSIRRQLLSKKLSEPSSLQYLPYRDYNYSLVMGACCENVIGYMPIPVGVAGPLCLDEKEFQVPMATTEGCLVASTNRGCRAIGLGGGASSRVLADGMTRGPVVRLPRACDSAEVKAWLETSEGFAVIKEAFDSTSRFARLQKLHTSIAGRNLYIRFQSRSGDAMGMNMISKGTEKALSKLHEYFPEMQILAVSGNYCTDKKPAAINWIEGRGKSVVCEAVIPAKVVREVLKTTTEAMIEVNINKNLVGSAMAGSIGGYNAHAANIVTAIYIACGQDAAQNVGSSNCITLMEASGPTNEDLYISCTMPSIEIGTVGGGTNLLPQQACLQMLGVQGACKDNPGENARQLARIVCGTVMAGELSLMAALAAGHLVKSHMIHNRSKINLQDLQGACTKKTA

O=C1[C@H](CC[C@H](O)c2ccc(F)cc2)[C@@H](c2ccc(O)cc2)N1c1ccc(F)cc1 [ezetimibe]
reduction of LDL [1]: 17%

CCCCC(=O)N(Cc1ccc(-c2ccccc2-c2nnn[nH]2)cc1)[C@H](C(=O)O)C(C)C [Valsartan, valsartan]
Half-life (human body): 6 h

CC(C)(COP(=O)(O)OP(=O)(O)OC[C@H]1O[C@@H](n2cnc3c(N)ncnc32)[C@H](O)[C@@H]1OP(=O)(O)O)[C@@H](O)C(=O)NCCC(=O)NCCSC(=O)C[C@@](C)(O)CC(=O)O [HMGCoA, (S)-3-hydroxy-3-methylglutaryl-CoA]
Km [2]: 4 µM

CCCCc1nc(Cl)c(CO)n1Cc1ccc(-c2ccccc2-c2nn[nH]n2)cc1 [Losartan, losartan]
Half-life (human body): 5 h

CCOc1nc2cccc(C(=O)O)c2n1Cc1ccc(-c2ccccc2-c2nnn[nH]2)cc1 [Candesartan, candesartan]
Half-life (human, in vivo): 10 h | Active metabolite (in vivo): Yes | Major route of inactivation (in vivo): Liver and renal

CCCCC1=NC2(CCCC2)C(=O)N1Cc1ccc(-c2ccccc2-c2nnn[nH]2)cc1 [Irbesartan, irbesartan]
Active metabolite (human body): No | Half-life (human body): 13 h
